≈ marks a conversion by molar mass, not a printed value.
Experiments:
[1] = Solubility in PBS pH 7; assay type: physicochemical; details: aqueous buffer; pH 7, PBS
[2] = biological target: T1, hGPR40 (Homo sapiens, UniProt O14842); assay: GPR40 Inositol Phosphate Turnover (IP1) Assay; assay type: cell-based; design: expressed in transfected cells; host or cells: HEK cells stably expressing the aequorin reporter
Description: A human GPR40 stable cell-line was generated in HEK cells stably expressing the aequorin expressing reporter.
The assay is performed in 96-well format. HEK cells stably expressing human GPR^40 are plated to be 60-80% confluent within 72 h. After 72 h, the plates are aspirated and the cells washed with inositol-free DMEM (ICN). The wash media is replaced with 150 μL of 3H-inositol labeling media (inositol-free media containing 0.4% human albumin or 0.4% mouse albumin, 1× pen/strep antibiotics, glutamine, 25 mM HEPES to which is added 3H-myo-inositol NEN #NET114A 1mCi/mL, 25 Ci/mmol diluted 1:150 in loading media with a final specific radioactivity of 1 μCi/150 μL). Alternatively, the human and mouse albumin can be added after the overnight labeling step before the addition of LiCl.
The assay is typically run the next day after 18 h labeling. On the day of the assay, 5 μL, of 300 mM LiCl is added to all wells and incubated at 37 degrees for 20 min. 0.75 μL of 200× compounds are added and incubated with the cells for 60 min at 37 degrees. The media is then aspirated off and the assay terminated with the addition of 60 nI, 10 mM formic acid. The cells are lysed for 60 min at room temperature. 15-30 nI, of lysate is mixed with 70 mL/1 mg YSi SPA beads (Amersham) in clear bottom Isoplates. The plates are shaken for 2 h at room temperature. Beads are allowed to settle and the plates are counted in the Wallac Microbeta.

[3] = biological target: KV11.1 ion channel (hERG) (Homo sapiens, UniProt Q12809); assay: Binding to ion channel Kv11.1 (hERG)
[4] = biological target: T1, hGPR40; assay: GPR40 FLIPR assay (agonist-induced calcium mobilization); assay type: cell-based; design: expressed in transfected cells; host or cells: CHO cells stably expressing NFAT BLA (beta-lactamase); details: GPR40/CHO NFAT BLA cells;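 note: calcium mobilization in the cells read as fluorescence of fluo-4 AM loaded cells on FLIPR after compound addition, cells preloaded with dye 100 min at room temperature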
Description: Human and mouse GPR40 stable cell-lines were generated in CHO cells stably expressing NFAT BLA (Beta-lactamase). […] The expression plasmids were transfected using lipofectamine (Life Technologies) following manufacturer's instructions. Stable cell-lines were generated following drug selection.
FLIPR (Fluorimetric Imaging Plate Reader, Molecular Devices) assays were performed to measure agonist-induced calcium mobilization of the stable clones. For the FLIPR assay, one day before assay, GPR40/CHO NFAT BLA cells were seeded into black-wall-clear-bottom 384-well plates (Costar) at 1.4×10e4 cells/20 μL medium/well. The cells were incubated with 20 μl/well of the assay buffer (HBSS, 0.1% BSA, 20 mM HEPES, 2.5 mM probenecid, pH 7.4) containing 8 μM fluo-4, AM, 0.08% pluronic acid at room temperature for 100 minutes. Fluorescence output was measured using FLIPR. Compounds were dissolved in DMSO and diluted to desired concentrations with assay buffer. 13.3 μL/well of compound solution was added.

[5] = +0% human serum (Table A), read-out: Human GPR40 IP1, EC50, +0% human serum
[6] = +100% human serum (Table A), read-out: Human GPR40 IP1, EC50, +100% human serum
[7] = HEK cells stably expressing human GPR40, 0% serum, read-out: hGPR40 IP1 EC50 (0% serum)

T1 sequence (O14842 whole entry): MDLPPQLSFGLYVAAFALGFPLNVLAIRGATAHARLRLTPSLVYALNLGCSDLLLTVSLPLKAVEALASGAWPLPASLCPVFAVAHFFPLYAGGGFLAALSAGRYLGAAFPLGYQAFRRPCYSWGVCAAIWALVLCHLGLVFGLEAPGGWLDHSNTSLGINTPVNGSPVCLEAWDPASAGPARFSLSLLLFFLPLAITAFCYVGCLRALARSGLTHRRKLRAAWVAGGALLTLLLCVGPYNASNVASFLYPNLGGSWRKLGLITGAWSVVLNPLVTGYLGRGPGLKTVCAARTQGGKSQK
KV11.1 ion channel (hERG), sequence (Q12809 whole entry): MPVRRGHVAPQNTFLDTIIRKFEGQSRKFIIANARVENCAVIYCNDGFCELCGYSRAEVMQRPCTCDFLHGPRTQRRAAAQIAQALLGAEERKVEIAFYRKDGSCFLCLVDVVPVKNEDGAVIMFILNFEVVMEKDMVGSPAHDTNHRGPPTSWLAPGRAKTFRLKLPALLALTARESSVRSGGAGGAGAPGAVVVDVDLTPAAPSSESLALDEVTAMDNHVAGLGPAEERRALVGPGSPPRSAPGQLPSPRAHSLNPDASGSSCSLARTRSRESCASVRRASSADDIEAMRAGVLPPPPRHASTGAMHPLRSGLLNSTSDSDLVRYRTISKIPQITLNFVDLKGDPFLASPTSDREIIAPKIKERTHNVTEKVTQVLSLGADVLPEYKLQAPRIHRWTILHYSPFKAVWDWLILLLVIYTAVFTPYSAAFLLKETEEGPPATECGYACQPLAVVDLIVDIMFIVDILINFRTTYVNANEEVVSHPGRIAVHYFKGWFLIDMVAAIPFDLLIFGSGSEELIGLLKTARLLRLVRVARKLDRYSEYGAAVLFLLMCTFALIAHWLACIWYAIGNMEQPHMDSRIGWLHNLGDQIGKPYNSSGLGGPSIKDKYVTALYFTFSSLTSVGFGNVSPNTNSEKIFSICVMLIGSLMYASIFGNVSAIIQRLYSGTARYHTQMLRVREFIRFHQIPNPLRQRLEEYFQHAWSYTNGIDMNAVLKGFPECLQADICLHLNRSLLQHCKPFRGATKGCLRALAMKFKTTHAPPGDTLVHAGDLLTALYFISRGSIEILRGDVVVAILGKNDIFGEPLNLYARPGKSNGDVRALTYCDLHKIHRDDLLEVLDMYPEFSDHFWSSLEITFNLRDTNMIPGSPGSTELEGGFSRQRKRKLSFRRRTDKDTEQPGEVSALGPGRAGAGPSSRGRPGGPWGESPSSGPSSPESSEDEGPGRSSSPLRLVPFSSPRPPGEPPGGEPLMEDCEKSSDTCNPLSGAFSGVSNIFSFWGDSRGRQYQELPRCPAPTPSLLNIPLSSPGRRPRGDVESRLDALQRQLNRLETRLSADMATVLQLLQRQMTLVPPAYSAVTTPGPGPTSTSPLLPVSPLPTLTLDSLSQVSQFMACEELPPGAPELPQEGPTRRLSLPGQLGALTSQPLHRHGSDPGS

| EC50 [2, 7] [µM] | EC50 [4] [µM] | SMILES | solubility [1] [µM] | EC50 [2, 5] [µM] | EC50 [2, 6] [µM] | Ki [3] [µM] |
| --- | --- | --- | --- | --- | --- | --- |
| 0.066 | 0.024 | Cc1cc(OCCCC(C)(C)C#N)cc(C)c1-c1cccc(COc2cc3c(cn2)C2[C@@H](C3)[C@@H]2C(=O)O)c1 (stereo partly drawn) [Compound 28-6, (5aR,6S,6aR)-3-((4′-((4-cyano-4-methylpentyl)oxy)-2′,6′-dimethyl-[1,1′-biphenyl]-3-yl)methoxy)-5,5a,6,6a-tetrahdrocyclopropa[4,5]cyclopenta[1,2-c]pyridine-6-carboxylic acid] |  |  |  |  |
| 0.3 | 0.045 | Cc1cc(OCCCS(C)(=O)=O)cc(C)c1-c1ccc(F)c(C(C)Oc2cc3c(cn2)[C@H]2[C@@H](C3)[C@@H]2C(=O)O)c1 (stereo partly drawn) [Compound 30-5, (5aR,6S,6aS)-3-(1-(4-fluoro-2′,6′-dimethyl-4′-(3-(methylsulfonyl)propoxy)-[1,1′-biphenyl]-3-yl)ethoxy)-5,5a,6,6a-tetrahydrocyclopropa[4,5]cyclopenta[1,2-c]pyridine-6-carboxylic acid] |  |  |  |  |
| 0.028 | 0.051 | Cc1nc(N2CC(CS(C)(=O)=O)C2)ccc1-c1ccc(F)c(COc2cc3c(cn2)[C@H]2[C@@H](C3)[C@@H]2C(=O)O)c1 [Compound 31-8] |  |  |  |  |
| 0.069 | 0.076 | Cc1nc(N2CCC(CS(C)(=O)=O)C2)ccc1-c1ccc(F)c(COc2cc3c(cn2)C2C(C3)C2C(=O)O)c1 (stereo not shown) [Compound 31-9, 3-((2-fluoro-5-(2-methyl-6-(3-((methylsulfonyl)-methyl)pyrrolidin-1-yl)pyridin-3-yl)benzyl)oxy)-5,5a,6,6a-tetrahydrocyclopropa[4,5]cyclopenta[1,2-c]pyridine-6-carboxylic acid] |  |  |  |  |
| 0.18 | 0.045 | Cc1nc(N2CCC3(C=Cc4ccccc43)CC2)nc(C)c1-c1ccc(F)c(COc2cc3c(cn2)C2C(C3)C2C(=O)O)c1 (stereo not shown) [Compound 31-11, 3-((5-(4,6-dimethyl-2-(spiro[indene-1,4′-piperidin]-1′-yl)pyrimidin-5-yl)-2-fluorobenzyl)oxy)-5,5a,6,6a-tetrahydrocyclopropa[4,5]cyclopenta[1,2-c]pyridine-6-carboxylic acid] |  |  |  |  |
| 0.051 | 0.044 | Cc1nc(N2CCC(NS(C)(=O)=O)C2)ccc1-c1ccc(F)c(COc2cc3c(cn2)C2C(C3)C2C(=O)O)c1 (stereo not shown) [Compound 31-12, 3-((2-fluoro-5-(2-methyl-6-(3-(methylsulfonamido)-pyrrolidin-1-yl)pyridin-3-yl)benzyl)oxy)-5,5a,6,6a-tetrahydrocyclopropa[4,5]cyclopenta[1,2-c]pyridine-6-carboxylic acid] |  |  |  |  |
| 0.032 | 0.069 | Cc1nc(N2CCN(S(C)(=O)=O)CC2)ccc1-c1ccc(F)c(COc2cc3c(cn2)[C@H]2[C@@H](C3)[C@@H]2C(=O)O)c1 [Compound 31-13, (5aR,6S,6aS)-3-((2-fluoro-5-(2-methyl-6-(4-(methylsulfonyl)piperazin-1-yl)pyridin-3-yl)benzyl)oxy)-5,5a,6,6a-tetrahydrocyclopropa[4,5]cyclopenta[1,2-c]pyridine-6-carboxylic acid] |  |  |  |  |

The remaining lines, values behind:

| SMILES | EC50 [2, 7] [µM] | EC50 [4] [µM] | solubility [1] [µM] | EC50 [2, 5] [µM] | EC50 [2, 6] [µM] | Ki [3] [µM] |
| --- | --- | --- | --- | --- | --- | --- |
| Cc1cc(OCC2(C)COC2)cc(C)c1-c1cccc(COc2cc3c(cn2)[C@H]2[C@@H](C3)[C@@H]2C(=O)O)c1 (single isomer, unassigned) [Compound A-2] |  |  | 118 (≈ 57.3 µg/mL) | 0.018 | 0.199 |  |
| Cc1cc(OCC2(C)COC2)cc(C)c1-c1ccc(F)c(COc2cc3c(cn2)[C@H]2[C@@H](C3)[C@@H]2C(=O)O)c1 (single isomer, unassigned) [Compound A-3] |  |  | 107 (≈ 53.9 µg/mL) | 0.009 | 0.081 | 40.2 |
| Cc1cc(CCCC(C)(C)O)cc(C)c1-c1ccc(F)c(COc2cc3c(cn2)[C@H]2[C@@H](C3)[C@@H]2C(=O)O)c1 (single isomer, unassigned) [Compound A-4] |  |  | 143 (≈ 72 µg/mL) | 0.005 | 0.124 | 7.5 |
| O=C(O)[C@H]1[C@@H]2Cc3cc(OCc4cc(Oc5ccc(C(F)(F)F)cc5Cl)ccc4F)ncc3[C@@H]21 [Compound 25-4, 4-[5-(2-Chloro-4-trifluoromethyl-phenoxy)-2-fluoro-benzyloxy]-1,1a, 6,6a-tetrahydro-3-aza-cyclopropa [a]indene-1-carboxylic acid] | 0.3 | 0.049 |  |  |  |  |
| Cc1cccc(C)c1-c1ccc(F)c(COc2cc3c(cn2)C2C(C3)C2C(=O)O)n1 (stereo not shown) [Compound 26-7, 3-((6-(2,6-dimethylphenyl)-3-fluoropyridin-2-yl)methoxy)-5,5a,6,6a-tetrahydrocyclopropa[4,5]cyclopenta[1,2-c]pyridine-6-carboxylic acid] | 0.12 | 0.042 |  |  |  |  |
| Cc1cccc(C)c1-c1cc(COc2cc3c(cn2)C2C(C3)C2C(=O)O)c(F)cn1 (stereo not shown) [Compound 26-8, 3-((2-(2,6-dimethyl-phenyl)-5-fluoropyridin-4-yl)methoxy)-5,5a,6,6a-tetrahydrocyclopropa [4,5]cyclopenta[1,2-c]pyridine-6-carboxylic acid] | 0.1 | 0.028 |  |  |  |  |
| CS(=O)(=O)CCCOc1ccc(-c2ccc(F)c(COc3cc4c(cn3)[C@H]3[C@@H](C4)[C@@H]3C(=O)O)n2)c(C(F)(F)F)c1 [Compound 26-9, (5aR,6S,6aS)-3-((3-fluoro-6-(4-(3-(methyl-sulfonyl)-propoxy)-2-(trifluoromethyl)-phenyl)pyridin-2-yl)methoxy)-5,5a,6,6a-tetrahydrocyclo-propa[4,5]cyclopenta [1,2-c]pyridine-6-carboxylic acid] | 0.053 | 0.07 |  |  |  |  |
| Cc1nc(N2CCN(S(C)(=O)=O)CC2)ccc1-c1ccc(F)c(COc2cc3c(cn2)[C@H]2[C@@H](C3)[C@@H]2C(=O)O)n1 [Compound 26-10, (5aR,6S,6aS)-3-((5-fluoro-2′-methyl-6′-(4-(methylsulfonyl)-piperazin-1-yl)-[2,3′-bipyridin]-6-yl)methoxy)-5,5a,6,6a-tetrahydrocyclo-propa[4,5]cyclopenta [1,2-c]pyridine-6-carboxylic acid] | 0.3 | 0.09 |  |  |  |  |
| Cc1cccc(C)c1-c1cccc(COc2cc3c(cn2)C2[C@@H](C3)[C@@H]2C(=O)O)c1C (stereo partly shown) [Compound 27-5, 4-(2,2′,6′-Trimethyl-biphenyl-3-ylmethoxy)-1,1a,6,6a-tetrahydro-3-aza-cyclopropa[a]indene-1-carboxylic acid] | 0.0067 | 0.0081 |  |  |  |  |
| Cc1c(COc2cc3c(cn2)C2C(C3)C2C(=O)O)cccc1-c1ccccc1C(F)(F)F (stereo not shown) [Compound 27-6, 3-((2-methyl-2′-(trifluoro-methyl)-[1,1′-biphenyl]-3-yl)methoxy)-5,5a,6,6a-tetrahydrocyclopropa[4,5]-cyclopenta[1,2-c]pyridine-6-carboxylic acid] | 0.085 | 0.03 |  |  |  |  |
| Cc1cc(O[C@H]2C[C@@](C)(C#N)C2)cc(C)c1-c1cccc(COc2cc3c(cn2)C2[C@@H](C3)[C@@H]2C(=O)O)c1 (stereo partly drawn) [Compound 29-7, (5aR,6S,6aR)-3-((4′-((1s,3s)-3-cyano-3-methylcyclobutoxy)-2′,6′-dimethyl-[1,1′-biphenyl]-3-yl)methoxy)-5,5a,6,6a-tetrahydrocyclopropa[4,5]cyclopenta[1,2-c]pyridine-6-carboxylic acid] | 0.021 | 0.054 |  |  |  |  |
| Cc1nc(N2CCOCC2)nc(C)c1-c1ccc(F)c(COc2cc3c(cn2)C2C(C3)C2C(=O)O)c1 (stereo not shown) [Compound 31-10, 3-((5-(4,6-dimethyl-2-morpholinopyrimidin-5-yl)-2-fluorobenzyl)oxy)-5,5a,6,6a-tetrahydrocyclopropa[4,5]cyclopenta[1,2-c]pyridine-6-carboxylic acid] | 0.045 | 0.086 |  |  |  |  |
| CCc1nc2ccc(F)c(F)c2n1-c1cccc(COc2cc3c(cn2)[C@H]2[C@@H](C3)[C@@H]2C(=O)O)c1C [Compound 32-9, (5aR,6S,6aS)-3-((3-(2-ethyl-6,7-difluoro-1H-benzo[d]imidazol-1-yl)-2-methylbenzyl)oxy)-5,5a,6,6a-tetrahydrocyclopropa[4,5]cyclopenta[1,2-c]pyridine-6-carboxylic acid] | 0.0049 | 0.03 |  |  |  |  |
| Cc1cccc(C)c1-c1cccc(COc2cc3c(cn2)[C@H]2[C@@H](C3)[C@@H]2C(=O)O)c1C [Compound A-1] |  |  | 73 (≈ 29.2 µg/mL) | 0.006 | 0.081 | 40 |
| Cc1cccc(C)c1-c1cccc(COc2ccc3c(c2)C[C@H]2[C@H](C(=O)O)[C@@H]32)c1C [Compound B-1, reference compound] |  |  | 56 (≈ 22.3 µg/mL) | 0.069 | 0.322 | 6 |
| Cc1cc(OCC2(C)COC2)cc(C)c1-c1cccc(COc2ccc3c(c2)C[C@H]2[C@H](C(=O)O)[C@@H]32)c1 [Compound B-2, reference compound] |  |  | 21 (≈ 10.2 µg/mL) | 0.07 | 0.816 | 8.6 |
| Cc1cc(OCC2(C)COC2)cc(C)c1-c1ccc(F)c(COc2ccc3c(c2)C[C@H]2[C@H](C(=O)O)[C@@H]32)c1 [Compound B-3, reference compound] |  |  | 49 (≈ 24.6 µg/mL) | 0.031 | 0.286 | 7.8 |
| Cc1cc(CCCC(C)(C)O)cc(C)c1-c1ccc(F)c(COc2ccc3c(c2)C[C@H]2[C@H](C(=O)O)[C@@H]32)c1 [Compound B-4, reference compound] |  |  | 66 (≈ 33.2 µg/mL) | 0.1 | 0.348 |  |

— patent publication US20140045746A1 (Merck Sharp & Dohme Corp., priority 2012, published 2014)
